According to PMC10882719 (Frontiers in Neuroscience, 2024):
Where two headings read alike, the source gives them in different places.

What was measured:
Assay type in all cases: cell-based
[1] = molecular target: T1, 168 GPCRs (Homo sapiens, UniProt P25090)
T1 construct: host or cells: PathHunter cell lines
T1 sequence (P25090 1-351): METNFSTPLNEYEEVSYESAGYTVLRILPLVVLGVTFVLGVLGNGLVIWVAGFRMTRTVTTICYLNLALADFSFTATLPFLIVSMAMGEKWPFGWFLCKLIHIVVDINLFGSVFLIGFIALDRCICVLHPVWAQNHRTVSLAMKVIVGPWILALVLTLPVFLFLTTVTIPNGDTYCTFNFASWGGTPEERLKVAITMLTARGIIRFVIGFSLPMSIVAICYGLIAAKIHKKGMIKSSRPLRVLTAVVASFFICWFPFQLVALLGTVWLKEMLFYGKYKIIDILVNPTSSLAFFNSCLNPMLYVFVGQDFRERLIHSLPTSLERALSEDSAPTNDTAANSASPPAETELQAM

[2] = molecular target: T2, 168 GPCRs (Homo sapiens, UniProt Q9Y5N1)
T2 construct: host or cells: PathHunter cell lines

[3] = molecular target: T3, 168 GPCRs (Homo sapiens, UniProt P28566); conditions: HTR1E
T3 construct: host or cells: PathHunter cell lines

[4] = molecular target: T4, 168 GPCRs (Homo sapiens, UniProt P43220); conditions: GLP1R
T4 construct: host or cells: PathHunter cell lines

[5] = molecular target: T5, 168 GPCRs (Homo sapiens, UniProt Q969V1)
T5 construct: host or cells: PathHunter cell lines

[6] = molecular target: T6, 168 GPCRs (Homo sapiens, UniProt P08912)
T6 construct: host or cells: PathHunter cell lines
T6 sequence (P08912 1-532): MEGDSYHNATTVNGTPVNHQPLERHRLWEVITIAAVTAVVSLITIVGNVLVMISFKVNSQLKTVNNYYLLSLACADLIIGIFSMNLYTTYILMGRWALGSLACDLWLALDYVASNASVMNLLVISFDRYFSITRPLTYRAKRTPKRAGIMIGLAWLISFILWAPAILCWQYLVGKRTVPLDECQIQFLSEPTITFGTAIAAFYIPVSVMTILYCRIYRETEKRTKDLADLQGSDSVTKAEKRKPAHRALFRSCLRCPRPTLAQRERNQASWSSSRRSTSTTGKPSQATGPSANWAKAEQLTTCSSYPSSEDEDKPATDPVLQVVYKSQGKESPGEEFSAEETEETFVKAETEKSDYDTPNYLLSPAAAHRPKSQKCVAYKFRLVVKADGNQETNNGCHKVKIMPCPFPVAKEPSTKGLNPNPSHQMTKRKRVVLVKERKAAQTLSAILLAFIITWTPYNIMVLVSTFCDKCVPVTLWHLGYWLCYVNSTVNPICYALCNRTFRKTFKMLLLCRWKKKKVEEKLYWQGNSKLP

[7] = molecular target: T7, 168 GPCRs (Homo sapiens, UniProt Q99705)
T7 construct: host or cells: PathHunter cell lines

[8] = molecular target: T8, 168 GPCRs (Homo sapiens, UniProt P21554)
T8 construct: host or cells: PathHunter cell lines

[9] = molecular target: T9, 168 GPCRs (Homo sapiens, UniProt P51686)
T9 construct: host or cells: PathHunter cell lines
T9 sequence (P51686 1-369): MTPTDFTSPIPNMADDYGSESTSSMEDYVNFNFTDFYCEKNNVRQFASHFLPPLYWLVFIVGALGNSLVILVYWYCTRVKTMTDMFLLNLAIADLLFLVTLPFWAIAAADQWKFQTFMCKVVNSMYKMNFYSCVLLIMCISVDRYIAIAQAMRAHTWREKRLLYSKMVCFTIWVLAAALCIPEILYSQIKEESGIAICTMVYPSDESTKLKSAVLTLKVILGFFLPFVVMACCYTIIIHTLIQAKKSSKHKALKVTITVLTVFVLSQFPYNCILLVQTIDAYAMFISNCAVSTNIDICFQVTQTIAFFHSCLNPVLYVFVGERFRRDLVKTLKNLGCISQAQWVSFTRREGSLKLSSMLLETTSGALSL

[10] = molecular target: T10, 168 GPCRs (Homo sapiens, UniProt P28222); conditions: HTR1B
T10 construct: host or cells: PathHunter cell lines

[11] = molecular target: T11, 168 GPCRs (Homo sapiens, UniProt P30518)
T11 construct: host or cells: PathHunter cell lines
T11 sequence (P30518 whole entry): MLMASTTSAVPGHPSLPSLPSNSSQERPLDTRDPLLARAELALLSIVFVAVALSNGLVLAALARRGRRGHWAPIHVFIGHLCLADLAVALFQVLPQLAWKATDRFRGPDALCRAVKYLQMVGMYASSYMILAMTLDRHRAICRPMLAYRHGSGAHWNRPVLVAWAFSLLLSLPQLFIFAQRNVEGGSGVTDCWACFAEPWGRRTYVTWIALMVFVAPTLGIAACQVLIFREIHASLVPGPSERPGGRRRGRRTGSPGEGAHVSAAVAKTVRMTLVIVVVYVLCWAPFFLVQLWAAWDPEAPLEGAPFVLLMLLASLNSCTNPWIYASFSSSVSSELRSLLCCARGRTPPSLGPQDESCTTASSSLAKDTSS

T4 sequence (P43220 24-463): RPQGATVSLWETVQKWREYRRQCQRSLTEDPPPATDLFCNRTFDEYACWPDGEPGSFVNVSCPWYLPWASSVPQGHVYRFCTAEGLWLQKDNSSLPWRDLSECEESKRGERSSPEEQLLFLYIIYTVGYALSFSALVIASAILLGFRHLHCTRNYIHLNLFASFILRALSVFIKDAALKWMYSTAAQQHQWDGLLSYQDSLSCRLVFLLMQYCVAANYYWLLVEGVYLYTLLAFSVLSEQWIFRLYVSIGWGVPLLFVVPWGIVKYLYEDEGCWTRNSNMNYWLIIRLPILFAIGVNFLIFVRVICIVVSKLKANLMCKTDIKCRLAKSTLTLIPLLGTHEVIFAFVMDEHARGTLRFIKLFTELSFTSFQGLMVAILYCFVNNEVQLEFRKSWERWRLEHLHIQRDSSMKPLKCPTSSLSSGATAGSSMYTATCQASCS
T3 sequence (P28566 whole entry): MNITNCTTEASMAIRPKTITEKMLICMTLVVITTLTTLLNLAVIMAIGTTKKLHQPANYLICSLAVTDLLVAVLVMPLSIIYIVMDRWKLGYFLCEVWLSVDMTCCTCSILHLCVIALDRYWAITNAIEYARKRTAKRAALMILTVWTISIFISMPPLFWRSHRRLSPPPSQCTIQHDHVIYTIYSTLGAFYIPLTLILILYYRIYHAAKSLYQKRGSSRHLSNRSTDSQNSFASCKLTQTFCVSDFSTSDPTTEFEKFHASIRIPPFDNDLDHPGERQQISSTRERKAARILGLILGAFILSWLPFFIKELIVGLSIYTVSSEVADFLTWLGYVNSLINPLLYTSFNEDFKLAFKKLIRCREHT
T2 sequence (Q9Y5N1 whole entry): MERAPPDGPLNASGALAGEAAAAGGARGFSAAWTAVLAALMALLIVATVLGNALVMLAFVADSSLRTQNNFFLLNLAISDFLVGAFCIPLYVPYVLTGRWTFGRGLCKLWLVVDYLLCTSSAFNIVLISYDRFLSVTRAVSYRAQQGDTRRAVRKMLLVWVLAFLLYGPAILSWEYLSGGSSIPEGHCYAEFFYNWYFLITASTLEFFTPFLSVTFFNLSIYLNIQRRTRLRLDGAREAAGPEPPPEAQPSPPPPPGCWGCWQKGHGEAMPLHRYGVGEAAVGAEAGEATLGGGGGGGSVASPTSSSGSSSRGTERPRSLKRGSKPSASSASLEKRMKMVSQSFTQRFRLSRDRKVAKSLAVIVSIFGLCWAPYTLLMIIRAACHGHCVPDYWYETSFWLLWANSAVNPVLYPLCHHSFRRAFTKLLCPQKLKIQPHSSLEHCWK
T5 sequence (Q969V1 whole entry): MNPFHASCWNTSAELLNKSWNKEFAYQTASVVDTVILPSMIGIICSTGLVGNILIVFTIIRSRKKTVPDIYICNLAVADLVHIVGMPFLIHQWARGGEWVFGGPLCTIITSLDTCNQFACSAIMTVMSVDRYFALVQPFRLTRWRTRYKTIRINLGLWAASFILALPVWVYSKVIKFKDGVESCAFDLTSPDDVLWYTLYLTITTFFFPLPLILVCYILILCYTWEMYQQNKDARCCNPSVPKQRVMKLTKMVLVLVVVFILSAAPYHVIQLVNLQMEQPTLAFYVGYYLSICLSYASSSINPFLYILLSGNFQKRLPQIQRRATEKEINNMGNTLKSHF
T7 sequence (Q99705 whole entry): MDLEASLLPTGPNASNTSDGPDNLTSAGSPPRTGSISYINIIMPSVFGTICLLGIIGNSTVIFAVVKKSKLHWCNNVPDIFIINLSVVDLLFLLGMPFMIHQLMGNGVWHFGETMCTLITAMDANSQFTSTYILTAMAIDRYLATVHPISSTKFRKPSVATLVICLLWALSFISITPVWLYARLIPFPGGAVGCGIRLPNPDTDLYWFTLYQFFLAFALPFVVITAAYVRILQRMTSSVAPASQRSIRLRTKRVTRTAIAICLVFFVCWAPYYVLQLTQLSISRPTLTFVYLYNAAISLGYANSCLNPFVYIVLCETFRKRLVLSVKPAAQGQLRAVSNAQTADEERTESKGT
T8 sequence (P21554 whole entry): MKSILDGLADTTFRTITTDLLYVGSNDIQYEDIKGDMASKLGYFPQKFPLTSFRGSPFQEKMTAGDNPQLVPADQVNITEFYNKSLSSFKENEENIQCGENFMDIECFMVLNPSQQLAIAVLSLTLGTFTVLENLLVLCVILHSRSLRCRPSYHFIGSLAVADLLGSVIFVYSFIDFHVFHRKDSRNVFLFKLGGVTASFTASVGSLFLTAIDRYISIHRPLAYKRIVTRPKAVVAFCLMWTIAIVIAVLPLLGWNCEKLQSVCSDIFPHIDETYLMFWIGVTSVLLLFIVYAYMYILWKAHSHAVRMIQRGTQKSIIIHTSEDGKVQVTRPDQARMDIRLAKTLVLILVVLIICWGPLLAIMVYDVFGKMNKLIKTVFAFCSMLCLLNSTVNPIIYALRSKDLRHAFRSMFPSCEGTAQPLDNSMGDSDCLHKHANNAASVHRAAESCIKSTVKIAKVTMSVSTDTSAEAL
T10 sequence (P28222 whole entry): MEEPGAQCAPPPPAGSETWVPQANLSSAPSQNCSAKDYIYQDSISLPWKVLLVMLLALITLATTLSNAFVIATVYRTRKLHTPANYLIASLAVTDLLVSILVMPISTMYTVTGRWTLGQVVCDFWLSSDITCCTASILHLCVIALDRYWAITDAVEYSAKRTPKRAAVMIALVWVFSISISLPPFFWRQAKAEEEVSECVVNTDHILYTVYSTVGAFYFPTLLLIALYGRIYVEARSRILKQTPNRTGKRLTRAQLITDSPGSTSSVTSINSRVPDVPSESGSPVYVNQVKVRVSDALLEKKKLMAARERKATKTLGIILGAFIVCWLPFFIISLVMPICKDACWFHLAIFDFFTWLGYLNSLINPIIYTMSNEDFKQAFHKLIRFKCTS

With `CNC(C)Cc1ccc2c(c1)OCO2` (stereo not shown) [MDMA, 3,4-Methylenedioxy methamphetamine, reference compound] the “% Agonist Activity” value ([1]; FPRL1, 1 uM) was -0.1%, the “% Antagonist Activity” value ([1]; FPRL1, 1 uM) was 14.8% and the “% Agonist Activity” value ([1]; FPRL1, 10 uM) was -0.1%. For the same molecule, the “% Antagonist Activity” value ([1]; FPRL1, 10 uM) was 16.7%, the “% Agonist Activity” value ([2]; HRH3, 1 uM) was -3.1% and the “% Antagonist Activity” value ([2]; HRH3, 1 uM) was 6.2%. The “% Agonist Activity” value ([2]; HRH3, 10 uM) was -2.6%, the “% Antagonist Activity” value ([2]; HRH3, 10 uM) was 22.6% and the “% Agonist Activity” value ([3]; 1 uM) was 1.9%. For the same molecule, the “% Antagonist Activity” value ([3]; 1 uM) was 18%, the “% Agonist Activity” value ([3]; 10 uM) was 1.1% and the “% Antagonist Activity” value ([3]; 10 uM) was 12.7%. For the same molecule, the “% Agonist Activity” value ([4]; 1 uM) was -0.4%, the “% Antagonist Activity” value ([4]; 1 uM) was 9.5% and the “% Agonist Activity” value ([4]; 10 uM) was -0.2%. The “% Antagonist Activity” value ([4]; 10 uM) was 12.9%, the “% Agonist Activity” value ([5]; MCHR2, 1 uM) was 0.8% and the “% Antagonist Activity” value ([5]; MCHR2, 1 uM) was -25%. The “% Agonist Activity” value ([5]; MCHR2, 10 uM) was 0.3%, the “% Antagonist Activity” value ([5]; MCHR2, 10 uM) was -17.3% and the “% Agonist Activity” value ([6]; CHRM5, 1 uM) was 8.8%. For the same molecule, the “% Antagonist Activity” value ([6]; CHRM5, 1 uM) was 11.2%, the “% Agonist Activity” value ([6]; CHRM5, 10 uM) was 8.3% and the “% Antagonist Activity” value ([6]; CHRM5, 10 uM) was 14.4%. For the same molecule, the “% Agonist Activity” value ([7]; MCHR1, 1 uM) was -4%, the “% Antagonist Activity” value ([7]; MCHR1, 1 uM) was 5.3% and the “% Agonist Activity” value ([7]; MCHR1, 10 uM) was -4.4%. The “% Antagonist Activity” value ([7]; MCHR1, 10 uM) was 2.1%, the “% Agonist Activity” value ([8]; CNR1, 1 uM) was -0.5% and the “% Antagonist Activity” value ([8]; CNR1, 1 uM) was 7.8%. The “% Agonist Activity” value ([8]; CNR1, 10 uM) was 0.1%, the “% Antagonist Activity” value ([8]; CNR1, 10 uM) was 11.2% and the “% Agonist Activity” value ([9]; CCR9, 1 uM) was 0.1%. For the same molecule, the “% Antagonist Activity” value ([9]; CCR9, 1 uM) was 5.3%, the “% Agonist Activity” value ([9]; CCR9, 10 uM) was 0.2% and the “% Antagonist Activity” value ([9]; CCR9, 10 uM) was 14.5%. The “% Agonist Activity” value ([10]; 1 uM) was 8.5%, the “% Antagonist Activity” value ([10]; 1 uM) was -7.3% and the “% Agonist Activity” value ([10]; 10 uM) was 10.4%. The “% Antagonist Activity” value ([10]; 10 uM) was -0.1%, the “% Agonist Activity” value ([11]; AVPR2, 1 uM) was -2.9% and the “% Antagonist Activity” value ([11]; AVPR2, 1 uM) was -7.8%. The “% Agonist Activity” value ([11]; AVPR2, 10 uM) was -2.2% and the “% Antagonist Activity” value ([11]; AVPR2, 10 uM) was -0.4%.

`CNC(C)C(=O)c1ccc2c(c1)OCO2` (stereo not shown) [methylone] was tested, and the “% Agonist Activity” value ([1]; FPRL1, 1 uM) was -0.5%, the “% Antagonist Activity” value ([1]; FPRL1, 1 uM) was 12.3% and the “% Agonist Activity” value ([1]; FPRL1, 10 uM) was 0.1%. The “% Antagonist Activity” value ([1]; FPRL1, 10 uM) was 3.9%, the “% Agonist Activity” value ([2]; HRH3, 1 uM) was -3.4% and the “% Antagonist Activity” value ([2]; HRH3, 1 uM) was 9.5%. For the same molecule, the “% Agonist Activity” value ([2]; HRH3, 10 uM) was -3.7%, the “% Antagonist Activity” value ([2]; HRH3, 10 uM) was 5.8% and the “% Agonist Activity” value ([3]; 1 uM) was -3.5%. The “% Antagonist Activity” value ([3]; 1 uM) was 7.6%, the “% Agonist Activity” value ([3]; 10 uM) was 0.2% and the “% Antagonist Activity” value ([3]; 10 uM) was 13.2%. The “% Agonist Activity” value ([4]; 1 uM) was -0.3%, the “% Antagonist Activity” value ([4]; 1 uM) was 3.4% and the “% Agonist Activity” value ([4]; 10 uM) was -0.1%. The “% Antagonist Activity” value ([4]; 10 uM) was -0.9%, the “% Agonist Activity” value ([5]; MCHR2, 1 uM) was -1.5% and the “% Antagonist Activity” value ([5]; MCHR2, 1 uM) was 2%. For the same molecule, the “% Agonist Activity” value ([5]; MCHR2, 10 uM) was -0.7%, the “% Antagonist Activity” value ([5]; MCHR2, 10 uM) was -4.5% and the “% Agonist Activity” value ([6]; CHRM5, 1 uM) was 7.2%. The “% Antagonist Activity” value ([6]; CHRM5, 1 uM) was -8%, the “% Agonist Activity” value ([6]; CHRM5, 10 uM) was 8.7% and the “% Antagonist Activity” value ([6]; CHRM5, 10 uM) was -7.6%. For the same molecule, the “% Agonist Activity” value ([7]; MCHR1, 1 uM) was 3.9%, the “% Antagonist Activity” value ([7]; MCHR1, 1 uM) was -12.2% and the “% Agonist Activity” value ([7]; MCHR1, 10 uM) was 3.1%. The “% Antagonist Activity” value ([7]; MCHR1, 10 uM) was -18.3%, the “% Agonist Activity” value ([8]; CNR1, 1 uM) was -0.4% and the “% Antagonist Activity” value ([8]; CNR1, 1 uM) was -3.5%. The “% Agonist Activity” value ([8]; CNR1, 10 uM) was -2.7%, the “% Antagonist Activity” value ([8]; CNR1, 10 uM) was -17.1% and the “% Agonist Activity” value ([9]; CCR9, 1 uM) was -0.5%. For the same molecule, the “% Antagonist Activity” value ([9]; CCR9, 1 uM) was 2.9%, the “% Agonist Activity” value ([9]; CCR9, 10 uM) was 0.2% and the “% Antagonist Activity” value ([9]; CCR9, 10 uM) was -9.9%. For the same molecule, the “% Agonist Activity” value ([10]; 1 uM) was 3.3%, the “% Antagonist Activity” value ([10]; 1 uM) was -9.5% and the “% Agonist Activity” value ([10]; 10 uM) was 6.7%. For the same molecule, the “% Antagonist Activity” value ([10]; 10 uM) was -6.2%, the “% Agonist Activity” value ([11]; AVPR2, 1 uM) was -0.9% and the “% Antagonist Activity” value ([11]; AVPR2, 1 uM) was -2.7%. For the same molecule, the “% Agonist Activity” value ([11]; AVPR2, 10 uM) was 1% and the “% Antagonist Activity” value ([11]; AVPR2, 10 uM) was -14.8%.
